Results as given in PMC8704606, “The Artemiside-Artemisox-Artemisone-M1 Tetrad: Efficacies against Blood Stage P. falciparum Parasites, DMPK Properties, and the Case for Artemiside” (Pharmaceutics, 2021).
Like-named read-outs stand apart in the source and are kept apart here.

Tests used:
[1] = test system: late-stage (LG) Pf NF54 gametocytes; test: Luciferase assay, late-stage gametocytes; format: cell-based, Plasmodium falciparum; details: for IC50: late-stage gametocytes >90% stages IV-V, dose response obtained at 72 h, ± SEM
Protocol: For screening artemisox and M1 against early- (EG) and late-stage (LG) gametocytes, the luciferase assay with transgenic NF54-pfs16-GFP-Luc and NF54-Mal8p1.16-GFP-Luc parasite lines was used. With this assay, stage-specificity of gametocytocidal action was established (Table 2). Dose-response curves are in Figures S1d,e and S2d in the Supplementary Material 1. […] As was observed previously for artemisone and artemiside, dose responses for artemisox and M1 could not be obtained at 48 h against late-stage gametocytes.
The same reference compounds with the exception of CQ were used for the early- and late-stage gametocyte assays. Gametocytocidal activity was determined using the transgenic NF54-pfs16-GFP-Luc and NF54-Mal8p1.16-GFP-Luc reporter lines. Compounds were initially screened for activity at a fixed drug concentration of 1 µM, with dose responses subsequently determined using 2-fold serial drug dilutions for 48 h against early-stage gametocytes (day 5 post-induction population, ≥95% stages II–III) and 10-fold serial drug dilutions for 48 h or 72 h against late-stage gametocytes (day 10 post-induction population, ≥90% late-stage [stages IV–V]) (2 to 3% gametocytemia, 2% hematocrit) at 37 °C under 90% N2, 5% CO2, and 5% O2 [6]. No drug washout steps were performed during the drug incubation periods prior to the assays. In all cases, an interference assay was run in parallel to eliminate the possibility of false positives arising through compound interference with the luciferase readout.

[2] = test system: asexual blood stages of Pf NF54 (drug sensitive); parameters: method as in PMID 29866868, PMID 31998692; details: asexual blood stage Pf NF54, CQ sensitive; SYBR Green I; ± SEM; cited from earlier work
[3] = test system: asexual blood stages of Pf K1 (drug resistant); parameters: method as in PMID 29866868, PMID 31998692; details: cited from earlier work; for IC50: asexual blood stage Pf K1, multidrug resistant, SYBR Green I, ± SEM
[4] = test system: early-stage (EG) Pf NF54 gametocytes; parameters: method as in PMID 29866868; details: early-stage gametocytes >95% stages II-III; 48 h incubation; ± SEM; cited from earlier work
[5] = test system: late-stage (LG) Pf NF54 gametocytes; parameters: method as in PMID 29866868; details: late-stage gametocytes >90% stages IV-V; dose responses obtained at 72 h; ± SEM; cited from earlier work
[6] = single dose 10 mg/kg, healthy Aotus monkeys; cited from earlier work
[7] = parameters: method as in PMID 18559649; details: clinical Phase I trial, subject plasma samples; cited from earlier work
D6 (CQ sensitive) = test system: D6 (CQ sensitive); parameters: method as in ref S2; details: [3H]-hypoxanthine assay; ref S2; read-out: Antimalarial activities IC50 D6; cited from earlier work
W2 (CQ resistant) = test system: W2 (CQ resistant); parameters: method as in ref S2; details: [3H]-hypoxanthine assay; ref S2; read-out: Antimalarial activities IC50 W2; cited from earlier work
7G8 (CQ resistant) = test system: 7G8 (CQ resistant); parameters: method as in ref S2; details: [3H]-hypoxanthine assay; ref S2; read-out: Antimalarial activities IC50 7G8; cited from earlier work
[8] = test system: TM93-C1088 (atovaquone and CQ resistant); parameters: method as in ref S2; details: [3H]-hypoxanthine assay; ref S2; read-out: Antimalarial activities IC50 TM93-C1088; cited from earlier work
P. falciparum W2 = test system: P. falciparum W2; parameters: method as in ref S3; details: [3H]-hypoxanthine assay; ref S3; cited from earlier work
[9] = test system: P. falciparum asexual blood stage artemisinin-resistant clone ARC08-22 (4G) carrying the PfKI3 C580Y mutation; parameters: method as in ref S3; details: ref S3, cited from earlier work; for IC50 / IC90: 48 h life cycle, PfKI3 C580Y
[10] = test system: CQ-resistant P. yoelii NS strain; details: cited from earlier work; for P. yoelii ED90 po / P. yoelii ED90 sc: Peters four-day test, mice, ref S4 (24); for P. yoelii ED90 sc: subcutaneous; for P. yoelii artesunate index sc: ref S4
P. berghei ANKA strain = details: cited from earlier work; for outcome of combination with piperaquine: P. berghei ANKA infected mice, ip 0.66 mg/kg with piperaquine 10 mg/kg
Toxoplasma gondii (Tg) [11] = test system: Toxoplasma gondii (Tg); parameters: method as in PMID 19635951; details: read-out: EC50 against Tg in vitro; cited from earlier work
Toxoplasma gondii (Tg) [12] = test system: Toxoplasma gondii (Tg); parameters: method as in PMID 19635951; details: IFN-γ−/− female mice, 10 mg/kg/d for 8 days after cessation of sulfadiazine; cited from earlier work
[13] = test system: fetal rat brain stem cells; details: ref S4 (24), cited from earlier work; for Viability NOEC: neuron-specific enolase activity, 7 days exposure
[14] = ATP levels 1 day after initial administration

In the case of `C[C@H]1[C@H](N2CCS(=O)(=O)CC2)O[C@@H]2O[C@@]3(C)CC[C@H]4[C@H](C)CC[C@@H]1[C@@]24OO3` [Artemisone 7, Artemisone], the “fold decrease in activity against late-stage gametocytes” value ([1]; late-stage vs early-stage gametocytes, p < 0.05) is given as greater than 20 fold, the IC50 [2] is given as 1.2 ± 0.4 nM and the IC50 [3] is given as 1.01 ± 0.19 nM. For the same molecule, the “RI (resistance index) = IC50 K1/IC50 NF54” value [3] was 0.85, the IC50 [4] was 1.94 ± 0.11 nM and the IC50 [5] was 42.4 ± 3.3 nM. The “ex vivo antimalarial activity observable up to (post dose)” value [6] was “up to 7 h”, the “fold higher ex vivo antimalarial activity at Tmax than corresponds to plasma concentration by LC-MS/MS” value [7] was 2.3 fold and the IC50 (D6 (CQ sensitive)) was 1 ± 0.4 nM. For the same molecule, the IC50 (W2 (CQ resistant)) was 1.3 ± 0.5 nM, the IC50 (7G8 (CQ resistant)) was 0.8 ± 0.1 nM and the IC50 [8] was 0.7 ± 0.2 nM. The IC50 (P. falciparum W2) was 1.69 nM, the IC90 (P. falciparum W2) was 3.42 nM and the IC50 [9] was 1.62 nM. For the same molecule, the IC90 [9] was 3.38 nM, the “RI = IC50 for ARC08-22(4G)/IC50 for W2” value [9] was 1.0 and the “P. yoelii ED90 po” value [10] was 5.0 mg/kg. For the same molecule, the “P. yoelii ED90 sc” value [10] was 3.9 mg/kg, the “P. yoelii artesunate index sc” value [10] was 5.6 and the “outcome of combination with piperaquine” value (P. berghei ANKA strain) was “recrudescence with eventual mortality was observed”. For the same molecule, the EC50 (Toxoplasma gondii (Tg) [11]) was 120 nM and the “mice with prolonged survival, reactivation stage” value (Toxoplasma gondii (Tg) [12]) was 60%.
In the case of `C[C@H]1[C@H](N2CC[S+]([O-])CC2)O[C@@H]2O[C@@]3(C)CC[C@H]4[C@H](C)CC[C@@H]1[C@@]24OO3` [Artemisox 6, Artemisox], the IC50 ([1]; Plasmodium falciparum, NF54, 72 h) is reported as 2.7 nM and the IC50 [1] is reported as 2.72 ± 0.09 nM.
For `C[C@H]1[C@H](N2CCSCC2)O[C@@H]2O[C@@]3(C)CC[C@H]4[C@H](C)CC[C@@H]1[C@@]24OO3` [Artemiside 5, Artemiside], the IC50 [2] is listed as 1.11 ± 0.17 nM, the IC50 [3] is listed as 1.6 ± 0.4 nM and the “RI (resistance index) = IC50 K1/IC50 NF54” value [3] is listed as 1.47. The IC50 [4] was 16.4 ± 1 nM, the IC50 [5] was 1.5 ± 0.5 nM and the IC50 (P. falciparum W2) was 2.21 nM. The IC90 (P. falciparum W2) was 4.28 nM, the IC50 [9] was 2.43 nM and the IC90 [9] was 4.85 nM. The “RI = IC50 for ARC08-22(4G)/IC50 for W2” value [9] was 1.1, the “P. yoelii ED90 po” value [10] was 2.0 mg/kg and the “P. yoelii ED90 sc” value [10] was 0.61 mg/kg. For the same molecule, the “P. yoelii artesunate index sc” value [10] was 36.0, the “outcome of combination with piperaquine” value (P. berghei ANKA strain) was “survival of all mice, with no recrudescence taking place” and the “outcome in cerebral malaria model” value (P. berghei ANKA strain; mice infected with P. berghei ANKA, artemiside 3 mg/kg/d ip for 4 days (days 2–5 post-infection)) was “complete cure”. The EC50 (Toxoplasma gondii (Tg) [11]) was 108 nM, the “mice with prolonged survival, reactivation stage” value (Toxoplasma gondii (Tg) [12]) was 80% and the “ATP IC50” value [13, 14] was 8.5 µg/mL. The “ATP NOEC” value [13, 14] was 1.0 µg/mL, the “ATP NOEC” value ([13]; ATP levels 1 day after initial administration, listed as artemiside) was 1 µg/mL and the “Viability NOEC” value [13] was 1.0 µg/mL. The “Viability NOEC” value ([13]; listed as artemiside) was 1 µg/mL.
